One assay concerns PC-3 cells. Kind of assay: Inhibition of proliferation: CyQuant PC-3. In kind it is cell-based. The conditions noted are these: 72 h; PC-3 human prostate carcinoma cells, incubated with compounds for 3 days, CyQuant NF DNA dye. On the procedure: • GFP-4E-BP1 substrate; Invitrogen order no. PV4759 • Lanthascreen Tb-anti-p4E-BP1 (pThr46) Antibody Kit; Invitrogen order no. PV4758 • FRAP1 (mTOR) kinase; Invitrogen order no. […] Preparation of Reagents: Note: Thaw and keep mTOR, the substrate, ATP, and the antibody on ice prior to making working dilutions. Working dilutions of these components can be kept at room temperature for short periods of time the day of use. 1. Add 2 ml of 5× Assay Buffer to 8 ml water to prepare 10 ml of 1× Assay Buffer. Note: The concentration of 1× Assay Buffer is 50 mM HEPES pH 7.5, 0.01% Polysorbate 20, 1 mM EGTA, and 10 mM MnCl2. 2. Prepare Antibody/EDTA Solution by first adding 2.75 n1 of Tb-anti p4E-BP1 Antibody to 2397 n1 of LanthaScreen™ TR-FRET Dilution Buffer. Then, add 100 n1 of 0.5 M EDTA. 3. Prepare 4× Substrate/Enzyme Solution by first adding 72 n1 of GFP-4E-BP1 (22 nM) to 926 n1 of 1× Assay Buffer. Then, add 1.6 n1 of mTOR (0.45 mg/mL). 4. Prepare ATP Solution by adding 3.2 n1 of 10 mM ATP to 1997 n1 of 1× Assay Buffer. Serial Dilution of Inhibitors (16 Point Curve): Note: It is recommended that inhibitors be serially diluted in DMSO, then diluted to a 4× working concentration with 1× Assay Buffer. The below procedure describes dilution of compounds in a 96-well format prior to transfer to a 384-well format for kinase assays. This procedure calls for dilution of the compounds in 2 adjacent columns of a 96-well plate, which upon transfer to a single column of a 384-well plate with an 8-channel pipette will align the samples in order of concentration. 1. Dispense 40 n1 of DMSO to two adjacent columns of a 96 well plate per compound (e.g. columns 1 and 2). 2. Add 10 n1 of inhibitor stock (10 mM) to the first well of the first column (A1) and mix. 3. Remove 10 n1 from A1 and transfer to the adjacent well in the next column (B1) and mix. 4. Remove 10 n1 from B1 and transfer to the next well in the first column (B2) and mix. 5. Repeat this dilution pattern through well H1 and leave the last well (H2) as DMSO only. 6. Remove 4 n1 of diluted compounds and add to 96 n1 of 1× Assay Buffer in a 96-well plate making 4× compound dilutions. Kinase Reaction: 1. Add 2.5 μl of 4× compound dilutions from the first column of the 96-well plate to every other well of column 1 of a 384-well plate with an 8-channel pipette. Repeat for columns 2 and 3. 2. Add 2.5 n1 of 4× compound dilutions from the second column of the 96-well plate to the empty wells of column 1 of the 384-well plate with an 8-channel pipette. Repeat for columns 2 and 3. Note: This procedure aligns the compound dilutions in order of concentration. 3. Add 2.5 n1 of 4× Enzyme/Substrate Solution to all columns 1-6. 4. Preincubate for 30 min. at RT (shaker). 5. Add 5 n1 of ATP Solution to all wells to start reactions. 6. Shake the assay plate on a plate shaker for 30 seconds. 7. Incubate the assay plate for one hour at room temperature (20-25° C.). Stop Step and Fluorescence Detection: 1. Add 10 n1 of Antibody/EDTA Solution to each well in columns 1-9. 2. Shake the assay plate on a plate shaker for 30 seconds. 3. Incubate the assay plate for one hour at room temperature (20-25° C.). 4. Measure the GFP (FRET) and terbium (reference) emission signals on a fluorescence plate reader (e.g. Perkin Elmer Envision). Data Analysis: 1. Calculate the emission ratio for each sample by dividing the GFP (FRET) signal by the terbium (reference) signal. 2. Plot the concentration of each compound versus the emission ratio. Determine the concentration of compound required to reach 50% of the maximum signal (IC50). Determination of IC50 values can be obtained by curve fitting (sigmoidal dose response, variable slope) using Prism software from GraphPad). Inhibition of Proliferation: CyQuant PC-3 Description:
The CyQuant NF assay is based on measurement of cellular DNA content via fluorescent dye binding. Because cellular DNA content is highly regulated, it is closely proportional to cell number. […]

Another assay addresses T1, FRAP1 (mTOR) kinase (Homo sapiens, UniProt P42345).
T1 construct: purchased Invitrogen PV4753
Kind of assay: Inhibition of mTOR-induced p-4E-BP1 phosphorylation (TR-FRET mTOR Activity Kit; Invitrogen). To be noted: 400 nM GFP-4E-BP1 substrate, ~150 ng/mL mTOR, one hour at room temperature. The assay is classed as biochemical. In a few lines: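 LanthaScreen TR-FRET: mTOR with GFP-4E-BP1 substrate in HEPES pH 7.5 buffer with 10 mM MnCl2, compound preincubated 30 min at RT, then ATP added and reacted 1 h at 20-25 °C. Stopped with EDTA plus Tb-anti-p4E-BP1 (pThr46), 1 h; GFP/Tb emission ratio over a 16-point curve, sigmoidal fit for IC50.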

Molecules are shown by their SMILES. pEC50, pIC50: −log10 of the molar value.

T1 sequence (P42345 1360-2549 limits assumed): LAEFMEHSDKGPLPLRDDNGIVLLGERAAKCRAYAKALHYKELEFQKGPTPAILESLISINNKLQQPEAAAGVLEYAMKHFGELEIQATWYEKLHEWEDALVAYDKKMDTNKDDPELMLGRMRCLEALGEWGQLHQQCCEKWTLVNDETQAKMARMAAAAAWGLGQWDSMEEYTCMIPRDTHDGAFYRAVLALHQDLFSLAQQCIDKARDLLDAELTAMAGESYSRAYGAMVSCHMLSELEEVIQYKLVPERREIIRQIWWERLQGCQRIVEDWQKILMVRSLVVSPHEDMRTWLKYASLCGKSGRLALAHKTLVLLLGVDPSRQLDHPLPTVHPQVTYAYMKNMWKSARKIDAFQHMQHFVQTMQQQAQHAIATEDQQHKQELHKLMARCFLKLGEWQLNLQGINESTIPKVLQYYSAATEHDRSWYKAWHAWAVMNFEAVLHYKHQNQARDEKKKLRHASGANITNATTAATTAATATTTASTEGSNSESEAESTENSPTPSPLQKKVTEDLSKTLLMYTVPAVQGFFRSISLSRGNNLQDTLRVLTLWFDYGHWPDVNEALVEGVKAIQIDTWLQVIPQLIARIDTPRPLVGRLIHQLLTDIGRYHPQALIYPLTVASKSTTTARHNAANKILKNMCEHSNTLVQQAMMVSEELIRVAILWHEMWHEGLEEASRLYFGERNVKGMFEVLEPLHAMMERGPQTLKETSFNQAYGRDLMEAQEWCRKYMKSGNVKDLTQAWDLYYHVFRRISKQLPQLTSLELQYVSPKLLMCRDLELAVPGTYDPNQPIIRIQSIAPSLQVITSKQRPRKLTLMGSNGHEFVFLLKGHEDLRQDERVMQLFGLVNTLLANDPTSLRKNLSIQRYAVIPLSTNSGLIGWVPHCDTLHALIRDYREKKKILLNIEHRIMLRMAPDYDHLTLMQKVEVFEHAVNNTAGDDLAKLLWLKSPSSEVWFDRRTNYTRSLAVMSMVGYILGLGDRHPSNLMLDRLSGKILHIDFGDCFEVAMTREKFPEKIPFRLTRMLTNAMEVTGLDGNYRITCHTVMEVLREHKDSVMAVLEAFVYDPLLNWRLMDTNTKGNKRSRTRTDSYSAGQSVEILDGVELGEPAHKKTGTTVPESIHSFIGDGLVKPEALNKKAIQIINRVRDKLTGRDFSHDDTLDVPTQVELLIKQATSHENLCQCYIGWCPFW

As usually defined, the pEC50 is the negative decadic logarithm of the EC50, by convention in mol/L. One may read the pIC50 as the IC50 on a negative log10 scale, so that one unit is a factor of ten. A lower pIC50 goes with a large IC50. Take `CC(=O)Nc1nc2c(s1)-c1c(c(-c3c[nH]cn3)nn1-c1ccccc1Cl)CCC2` [Example B-116]: the pEC50 with PC-3 cells was 6.83. Besides, at FRAP1 (mTOR) kinase, the pIC50 was 7.54.
With `CCNc1ccc(-c2nn(-c3ccccc3C)c3c2CCCc2nc(NC(=O)CCOC)sc2-3)cn1` [Example B-71], the pEC50 in the assay on PC-3 cells was 6.50. The compound also showed a pIC50 against FRAP1 (mTOR) kinase of 6.86.
In the case of `CNc1ccc(-c2nn(-c3ccccc3)c3c2CCCc2nc(NC(C)=O)sc2-3)cn1` [Example B-87, N-[3-(6-Methylamino-pyridin-3-yl)-1-phenyl-1,4,5,6-tetrahydro-9-thia-1,2,7-triaza-cyclopenta[e]azulen-8-yl]-acetamide], the pEC50 in the assay with PC-3 cells was 7.68. In addition, on FRAP1 (mTOR) kinase, the pIC50 was 7.26.
For the compound `CNc1ccc(-c2nn(CC(C)C)c3c2CCCc2nc(NC(C)=O)sc2-3)cn1` [Example B-86, N-[1-isobutyl-3-(6-methylamino-pyridin-3-yl)-1,4,5,6-tetrahydro-9-thia-1,2,7-triaza-cyclopenta[e]azulen-8-yl]-acetamide], in the assay with PC-3 cells, the pEC50 is 7.33. Also, the pIC50 on FRAP1 (mTOR) kinase is 7.49.
For `CCn1nc(-c2ccc(N)nc2)c2c1-c1sc(NC(C)=O)nc1CCC2` [Example B-130, N-[3-(6-Amino-pyridin-3-yl)-1-ethyl-1,4,5,6-tetrahydro-9-thia-1,2,7-triaza-cyclopenta[e]azulen-8-yl]-acetamide], in the assay on PC-3 cells, the pEC50 is 6.75. Besides, on FRAP1 (mTOR) kinase, the pIC50 was 7.72.
In the same order, the values of `CNc1ccc(-c2nn(-c3ccccc3F)c3c2CCCc2nc(NC(C)=O)sc2-3)cn1` [Example B-81, N-[1-(2-Fluoro-phenyl)-3-(6-methylamino-pyridin-3-yl)-1,4,5,6-tetrahydro-9-thia-1,2,7-triaza-cyclopenta[e]azulen-8-yl]-acetamide] are 7.64 and 7.39.
In the same order, the values of `CNc1ccc(-c2nn(-c3ccccc3Cl)c3c2CCCc2nc(NC(=O)N(C)C)sc2-3)cn1` [Example B-45] are 6.43 and 6.11.
The corresponding values for `CCNc1ccc(-c2nn(-c3ccccc3C)c3c2CCCc2nc(NC(=O)NC)sc2-3)cn1` [Example B-68] are 6.22 and 6.78.
On to `CC(=O)Nc1nc2c(s1)-c1c(c(-c3ccc(C)nc3)nn1-c1ccccc1C)CCC2` [Example B-11, N-[3-(6-Methyl-pyridin-3-yl)-1-o-tolyl-1,4,5,6-tetrahydro-9-thia-1,2,7-triaza-cyclopent[e]azulen-8-yl]-acetamide], for which the pEC50 with PC-3 cells is 6.32. The negative logarithm of the IC50 (pIC50) on FRAP1 (mTOR) kinase was 6.09.
`CNc1ccc(-c2nn(CCN3CCOCC3)c3c2CCCc2nc(NC(C)=O)sc2-3)cn1` [Example B-82, N-[3-(6-Methylamino-pyridin-3-yl)-1-(2-morpholin-4-yl-ethyl)-1,4,5,6-tetrahydro-9-thia-1,2,7-triaza-cyclopenta[e]azulen-8-yl]-acetamide]: the pEC50 with PC-3 cells is 7.31. The pIC50 on FRAP1 (mTOR) kinase is 7.48.
As for `CC(=O)Nc1nc2c(s1)-c1c(c(-c3ccc(N)nc3)nn1-c1cccnc1C)CCC2` [Example B-138, N-[3-(6-Amino-pyridin-3-yl)-1-(2-methyl-pyridin-3-yl)-1,4,5,6-tetrahydro-9-thia-1,2,7-triaza-cyclopent[e]azulen-8-yl]acetamide], in the assay on PC-3 cells, the negative-log EC50 (pEC50) was 6.63. This compound gave a negative logarithm of the IC50 (pIC50) against FRAP1 (mTOR) kinase of 7.42.
The corresponding values for `CNc1ccc(-c2nn(CCOC)c3c2CCCc2nc(NC(C)=O)sc2-3)cn1` [Example B-03, N-[1-(2-Methoxy-ethyl)-3-(6-methylamino-pyridin-3-yl)-1,4,5,6-tetrahydro-9-thia-1,2,7-triaza-cyclopenta[e]azulen-8-yl]-acetamide] are 6.58 and 7.06.
Turning to `CCNc1ccc(-c2nn(-c3ccccc3OC)c3c2CCCc2nc(NC(C)=O)sc2-3)cn1` [Example B-78], in the assay with PC-3 cells, the pEC50 is 6.60. At FRAP1 (mTOR) kinase, this compound showed a pIC50 of 6.87.
Turning to `CNc1ccc(-c2nn(-c3ccccc3C)c3c2CCCc2nc(NC(=O)CCc4ncc[nH]4)sc2-3)cn1` [Example B-109], the pEC50 in the assay with PC-3 cells is 6.79. This compound also had a pIC50 against FRAP1 (mTOR) kinase of 7.31.
Take `CNc1ccc(-c2nn(-c3cccnc3C)c3c2CCCc2nc(NC(C)=O)sc2-3)cn1` [Example B-139, N-[3-(6-Methylamino-pyridin-3-yl)-1-(2-methyl-pyridin-3-yl)-1,4,5,6-tetrahydro-9-thia-1,2,7-triaza-cyclopent[e]azulen-8-yl]acetamide]: the pEC50 in the assay with PC-3 cells was 7.15. In addition, the pIC50 against FRAP1 (mTOR) kinase is 7.68.
Consider `CNc1ccc(-c2nn(C(C)C)c3c2CCCc2nc(NC(=O)N(C)C)sc2-3)cn1` [Example B-27], for which the pEC50 in the assay on PC-3 cells was 6.48. The compound further gave a pIC50 at FRAP1 (mTOR) kinase of 6.30.
As for `CNc1ccc(-c2nn(-c3ccccc3C)c3c2CCCc2nc(NC(=O)CCOC)sc2-3)cn1` [Example B-106, 3-Methoxy-N-[3-(6-methylamino-pyridin-3-yl)-1-o-tolyl-1,4,5,6-tetrahydro-9-thia-1,2,7-triaza-cyclopenta[e]azulen-8-yl]-propionamide], the pEC50 with PC-3 cells is 6.75. The compound further showed a pIC50 against FRAP1 (mTOR) kinase of 7.16.
As for `CNc1ccc(-c2nn(-c3ccccc3F)c3c2CCCc2nc(NC(=O)N(C)C)sc2-3)cn1` [Example B-43], in the assay with PC-3 cells, the negative logarithm of the EC50 (pEC50) is 6.72. This compound gave a pIC50 on FRAP1 (mTOR) kinase of 6.85.
For the compound `CCNc1ccc(-c2nn(C(C)C)c3c2CCCc2nc(NC(C)=O)sc2-3)cn1` [Example B-01, N-[3-(6-Ethylamino-pyridin-3-yl)-1-isopropyl-1,4,5,6-tetrahydro-9-thia-1,2,7-triaza-cyclopenta[e]azulen-8-yl]-acetamide], the pEC50 in the assay on PC-3 cells was 6.51. This compound showed a pIC50 on FRAP1 (mTOR) kinase of 6.82.
For `CC(=O)Nc1nc2c(s1)-c1c(c(-c3ccc(N)nc3)nn1-c1ccccc1F)CCC2` [Example B-62, N-[3-(6-Amino-pyridin-3-yl)-1-(2-fluoro-phenyl)-1,4,5,6-tetrahydro-9-thia-1,2,7-triaza-cyclopenta[e]azulen-8-yl]-acetamide], the pEC50 in the assay with PC-3 cells is 7.33. At FRAP1 (mTOR) kinase, this compound showed a pIC50 of 8.00.
In the same order, the values of `CC(=O)Nc1nc2c(s1)-c1c(c(-c3c[nH]cn3)nn1-c1ccccc1C)CCC2` [Example B-112, N-[3-(1H-imidazol-4-yl)-1-o-tolyl-1,4,5,6-tetrahydro-9-thia-1,2,7-triaza-cyclopenta[e]azulen-8-yl]-acetamide] are 6.96 and 7.41.
Consider `CC(=O)Nc1nc2c(s1)-c1c(c(-c3ccc(N)nc3)nn1-c1ccccc1C)CCC2` [Example B-61, N-[3-(6-Amino-pyridin-3-yl)-1-o-tolyl-1,4,5,6-tetrahydro-9-thia-1,2,7-triaza-cyclopenta[e]azulen-8-yl]-acetamide], for which, in the assay with PC-3 cells, the pEC50 was 7.16. In addition, the pIC50 at FRAP1 (mTOR) kinase was 7.82.

The values above are taken from US8288379B2, “Thia-triaza-cyclopentazulenes” (Boehringer Ingelheim International GmbH, priority 2009, dated 2012).
